According to PubChem BioAssay (NCI):
Values joined by “and” are separate entries in the source; they are usually repeats but may differ in a detail not shown here. Equal entries are not always repeated.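 Values below derive from 48-hour exposures of cells grown in 96-well plates, with endpoints linearly interpolated between the two concentrations bracketing the appropriate inhibition level. TGI marks complete inhibition of growth.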

Legend:
Experiment in all cases: inhibition of tumour cell growth, NCI panel, 48 h
BT-549 breast = tested on: BT-549 breast
DU-145 prostate = tested on: DU-145 prostate
EKVX NSCLC = tested on: EKVX NSCLC
HCC-2998 colon = tested on: HCC-2998 colon
K-562 leukemia = tested on: K-562 leukemia
NCI-H23 lung = tested on: NCI-H23 lung
OVCAR-3 ovarian = tested on: OVCAR-3 ovarian
SF-268 CNS = tested on: SF-268 CNS
SK-MEL-28 melanoma = tested on: SK-MEL-28 melanoma
SR leukemia = tested on: SR leukemia
SW-620 colon = tested on: SW-620 colon
U251 CNS = tested on: U251 CNS
UO-31 renal = tested on: UO-31 renal
SNB-75 CNS = tested on: SNB-75 CNS

Row | SMILES | TGI (BT-549 breast) [µM] | TGI (DU-145 prostate) [µM] | TGI (EKVX NSCLC) | TGI (HCC-2998 colon) [µM] | TGI (K-562 leukemia) | TGI (NCI-H23 lung) [µM] | TGI (OVCAR-3 ovarian) [µM] | TGI (SF-268 CNS) [µM] | TGI (SK-MEL-28 melanoma) | TGI (SR leukemia) [µM] | TGI (SW-620 colon) [µM] | TGI (U251 CNS) [µM] | TGI (UO-31 renal) [µM] | TGI (SNB-75 CNS) [µM]
1 | O=C(O)C(Cc1ccc(O)cn1)NC(=O)C(F)(F)F (stereo not drawn) | > 100 | > 100 | > 100 µM | > 100 | > 100 µM | > 100 | > 100 | > 100 | > 100 µM | > 100 | > 100 | > 100 | > 100 | 
2 | O=C(O)C(Cc1cccs1)NC(=O)C(F)(F)F (stereo not drawn) |  |  | > 100 µM | > 100 | > 100 µM | > 100 | > 100 | > 100 | > 100 µM |  | > 100 | > 100 | > 100 | > 100
3 | CS(=O)(=O)c1nc(N)nc2nc[nH]c12 |  |  | > 100 µM | > 100 | > 100 µM | > 100 | > 100 | > 100 | > 100 µM | > 100 | > 100 | > 100 | > 100 | 
4 | CC(N)Cc1cccc(C(F)(F)F)c1 (stereo not drawn) |  |  | > 100 µM | > 100 | > 100 µM | > 100 | > 100 | > 100 | > 100 µM | > 100 | > 100 | > 100 | > 100 | > 100
5 | O=[N+]([O-])C(/C(Cl)=C(/Cl)N1CCCCC1)=C1\NCCO1 | > 100 | > 100 | > 100 µM | > 100 |  | > 100 | > 100 | > 100 | > 100 µM |  | > 100 | > 100 | > 100 | > 100
6 | O=C1CN(c2cccc(C(F)(F)F)c2)C(=O)CN1NCNN1CC(=O)N(c2cccc(C(F)(F)F)c2)CC1=O |  |  | > 100 µM | > 100 | > 100 µM |  |  | > 100 | > 100 µM | > 100 | > 100 | > 100 | > 100 | > 100
7 | CC(C)[Si](OC12CCC(CC1O)CC2C(=O)O)(C(C)C)C(C)C (stereo not drawn) |  | 33.7 |  |  | > 100 µM | 34.7 | 28 | 27.9 | 24.2 µM | > 100 | 41.9 | 31.4 | 26 | 28.1
8 | CCC1(O)CC(OC2CC(N(C)C)C(OC3CC(O)C(OC4OC(C)C(=O)C=C4N)C(C)O3)C(C)O2)c2c(O)c3c(c(O)c2C1C(=O)OC)C(=O)c1cccc(O)c1C3=O (stereo not drawn) |  | 0.0461 | 0.351 µM and 0.0968 µM | 0.118 | 0.125 µM and 0.0234 µM | 0.036 | 0.15 | 0.299 | 0.17 µM and 0.0205 µM |  | 0.0845 | 1.08 |  | 0.223
9 | NC(=S)SCCC(=O)O | > 100 | > 100 | > 100 µM | > 100 | > 100 µM | > 100 | > 100 | > 100 | > 100 µM |  | > 100 | > 100 | > 100 | > 100
10 | CN(C(=O)OC(C)(C)C)[C@H]1CCCC[C@H]1N1CCCC1 | > 100 | > 100 | > 100 µM |  | > 100 µM | > 100 | > 100 | > 100 | > 100 µM | > 100 | > 100 | > 100 | > 100 | 
11 | CC1=CC(C)C(C)N(CCNC(=O)Nc2ccccc2)c2ccccc21 (stereo not drawn) |  | > 100 | 76.3 µM | 61.1 | > 100 µM | 49.1 | 51.2 | > 100 | > 100 µM | 46.4 | 83.6 |  | 98.6 | 82.4
12 | Cn1c(=O)n(-c2c3ccccc3c(Cl)c3ccccc23)n(C(C)(C)C)c1=O | > 100 | > 100 | > 100 µM | > 100 | > 100 µM | > 100 | > 100 | > 100 | > 100 µM |  | > 100 | > 100 | > 100 | 43.9
13 | O=C(OCc1ccccc1)N1CCNCCNCC1 | > 100 | > 100 | > 100 µM | > 100 | > 100 µM | > 100 | > 100 | > 100 | > 100 µM | > 100 | > 100 | > 100 | > 100 | 
14 | CC(=O)c1ccc(-c2oc(-c3ccccc3)cc2-c2ccc3c(c2)OCO3)s1 |  | > 100 | > 100 µM | > 100 | > 100 µM | 89.9 | > 100 | > 100 |  | > 100 | > 100 | > 100 | > 100 | > 100
15 | O=C1CC2[C@@H](N3CCCC3)CCC(N1Cc1ccccc1)C2(O)O (stereo partly drawn) | > 100 | > 100 | > 100 µM | > 100 | > 100 µM | > 100 | > 100 | > 100 | > 100 µM | > 100 | > 100 | > 100 | > 100 | 
16 | NC(=O)/N=C(\N)NC(=O)c1ccccc1 | > 100 | > 100 | > 100 µM | > 100 | > 100 µM | > 100 | > 100 |  | > 100 µM | > 100 | > 100 | > 100 | > 100 | 
17 | Cc1[nH]c2c(C)ccc(C)c2c1CC(=O)O | > 100 | > 100 | > 100 µM | > 100 | > 100 µM | > 100 | > 100 | > 100 | > 100 µM |  | > 100 | > 100 | > 100 | 
18 | CC1(C)C(O)c2ccccc2OC1N1CCN(C2Oc3ccccc3C(O)C2(C)C)CC1 (stereo not drawn) |  | > 100 | > 100 µM | > 100 | > 100 µM | > 100 | > 100 | > 100 | > 100 µM | > 100 | > 100 | > 100 | > 100 | > 100
19 | C[C@]12CCC3c4ccc(OC(=O)c5ccccc5)cc4CC[C@H]3C1CC[C@@H]2OC(=O)C12OC1CCC2=O (stereo partly drawn) |  |  | 15 µM | > 71.9 | 5.06 µM | 9.76 | 8.82 | 14.6 | 10.7 µM | 13.5 | 4.86 | 17.4 | 11.9 | 19.1
